{"source": "ChEMBL document CHEMBL1144896", "about": "(2003)", "key": {"NCI-H1299 [1]": {"test_system": "NCI-H1299", "experiment": "hTERT-SEAP (Human telomerase reverse transcriptase-SEAP) activity in non-small cell lung cancer H1299 cell at 220.0 uM concentration and level of cell viability determined in MTT assay", "format": "functional"}, "BJ [2]": {"test_system": "BJ", "experiment": "Compound was tested for cytomegalovirus or (pPCMV-SEAP) activity in immortalized hTERT-BJ1 at 22 uM concentration", "format": "functional, Homo sapiens"}, "NCI-H1299 [3]": {"test_system": "NCI-H1299", "experiment": "Compound was tested for human telomerase reverse transcriptase-SEAP (hTERT-SEAP) activity in non-small cell lung cancer H1299 cell at 2.2 uM concentration", "format": "functional"}, "BJ [4]": {"test_system": "BJ", "experiment": "Compound was tested for human telomerase reverse transcriptase-SEAP (hTERT-SEAP) activity in immortalized hTERT-BJI at 22 uM concentration", "format": "functional"}, "BJ [5]": {"test_system": "BJ", "experiment": "hTERT-SEAP (Human telomerase reverse transcriptase-SEAP) activity in immortalized hTERT-BJI at 220.0 uM concentration and level of cell viability determined in MTT assay", "format": "functional"}, "BJ [6]": {"test_system": "BJ", "experiment": "Compound was tested for human telomerase reverse transcriptase-SEAP (hTERT-SEAP) activity in immortalized hTERT-BJI at 220.0 uM concentration", "format": "functional"}, "BJ [7]": {"test_system": "BJ", "experiment": "hTERT-SEAP (Human telomerase reverse transcriptase-SEAP) activity in immortalized hTERT-BJI at 2.2 uM concentration and level of cell viability determined in MTT assay", "format": "functional"}, "BJ [8]": {"test_system": "BJ", "experiment": "Compound was tested for cytomegalovirus or (pPCMV-SEAP) activity in immortalized hTERT-BJ1 at 2.0 uM concentration", "format": "functional, Homo sapiens"}, "BJ [9]": {"test_system": "BJ", "experiment": "Compound was tested for human telomerase reverse transcriptase-SEAP (hTERT-SEAP) activity in immortalized hTERT-BJI at 2.2 uM concentration", "format": "functional"}, "BJ [10]": {"test_system": "BJ", "experiment": "Compound was tested for cytomegalovirus or (pPCMV-SEAP) activity in immortalized hTERT-BJ1 at 220 uM concentration", "format": "functional, Homo sapiens"}, "NCI-H1299 [11]": {"test_system": "NCI-H1299", "experiment": "Compound was tested for human telomerase reverse transcriptase-SEAP (hTERT-SEAP) activity in non-small cell lung cancer H1299 cell at 220.0 uM concentration", "format": "functional"}, "NCI-H1299 [12]": {"test_system": "NCI-H1299", "experiment": "Compound was tested for human telomerase reverse transcriptase-SEAP (hTERT-SEAP) activity in non-small cell lung cancer H1299 cell at 22 uM concentration", "format": "functional"}, "BJ [13]": {"test_system": "BJ", "experiment": "hTERT-SEAP (Human telomerase reverse transcriptase-SEAP) activity in immortalized hTERT-BJI at 22 uM concentration and level of cell viability determined in MTT assay", "format": "functional"}, "BJ [14]": {"test_system": "BJ", "experiment": "pPCMV-SEAP (cytomegalovirus-SEAP) activity in immortalized hTERT-BJ1 at 22 uM concentration and level of cell viability determined in MTT assay", "format": "functional, Homo sapiens"}, "BJ [15]": {"test_system": "BJ", "experiment": "pPCMV-SEAP (cytomegalovirus-SEAP) activity in immortalized hTERT-BJ1 at 220 uM concentration and level of cell viability determined in MTT assay", "format": "functional, Homo sapiens"}, "NCI-H1299 [16]": {"test_system": "NCI-H1299", "experiment": "hTERT-SEAP (Human telomerase reverse transcriptase-SEAP) activity in non-small cell lung cancer H1299 cell at 2.2 uM concentration and level of cell viability determined in MTT assay", "format": "functional"}, "BJ [17]": {"test_system": "BJ", "experiment": "pPCMV-SEAP (cytomegalovirus-SEAP) activity in immortalized hTERT-BJ1 at 2.0 uM concentration and level of cell viability determined in MTT assay", "format": "functional, Homo sapiens"}, "NCI-H1299 [18]": {"test_system": "NCI-H1299", "experiment": "Compound was tested for human telomerase reverse transcriptase-SEAP (hTERT-SEAP) activity in non-small cell lung cancer H1299 cell at 180.0 uM concentration", "format": "functional"}, "NCI-H1299 [19]": {"test_system": "NCI-H1299", "experiment": "hTERT-SEAP (Human telomerase reverse transcriptase-SEAP) activity in non-small cell lung cancer H1299 cell at 180.0 uM concentration and level of cell viability determined in MTT assay", "format": "functional"}, "BJ [20]": {"test_system": "BJ", "experiment": "hTERT-SEAP (Human telomerase reverse transcriptase-SEAP) activity in immortalized hTERT-BJI at 18 uM concentration and level of cell viability determined in MTT assay", "format": "functional"}, "NCI-H1299 [21]": {"test_system": "NCI-H1299", "experiment": "hTERT-SEAP (Human telomerase reverse transcriptase-SEAP) activity in non-small cell lung cancer H1299 cell at 18 uM concentration and level of cell viability determined in MTT assay", "format": "functional"}, "NCI-H1299 [22]": {"test_system": "NCI-H1299", "experiment": "Compound was tested for human telomerase reverse transcriptase-SEAP (hTERT-SEAP) activity in non-small cell lung cancer H1299 cell at 18 uM concentration", "format": "functional"}, "BJ [23]": {"test_system": "BJ", "experiment": "pPCMV-SEAP (cytomegalovirus-SEAP) activity in immortalized hTERT-BJ1 at 180 uM concentration and level of cell viability determined in MTT assay", "format": "functional, Homo sapiens"}, "BJ [24]": {"test_system": "BJ", "experiment": "Compound was tested for cytomegalovirus or (pPCMV-SEAP) activity in immortalized hTERT-BJ1 at 18 uM concentration", "format": "functional, Homo sapiens"}, "BJ [25]": {"test_system": "BJ", "experiment": "Compound was tested for cytomegalovirus or (pPCMV-SEAP) activity in immortalized hTERT-BJ1 at 1.8 uM concentration", "format": "functional, Homo sapiens"}, "NCI-H1299 [26]": {"test_system": "NCI-H1299", "experiment": "Compound was tested for human telomerase reverse transcriptase-SEAP (hTERT-SEAP) activity in non-small cell lung cancer H1299 cell at 1.8 uM concentration", "format": "functional"}, "BJ [27]": {"test_system": "BJ", "experiment": "pPCMV-SEAP (cytomegalovirus-SEAP) activity in immortalized hTERT-BJ1 at 1.8 uM concentration and level of cell viability determined in MTT assay", "format": "functional, Homo sapiens"}, "BJ [28]": {"test_system": "BJ", "experiment": "pPCMV-SEAP (cytomegalovirus-SEAP) activity in immortalized hTERT-BJ1 at 18 uM concentration and level of cell viability determined in MTT assay", "format": "functional, Homo sapiens"}, "BJ [29]": {"test_system": "BJ", "experiment": "Compound was tested for cytomegalovirus or (pPCMV-SEAP) activity in immortalized hTERT-BJ1 at 180 uM concentration", "format": "functional, Homo sapiens"}, "BJ [30]": {"test_system": "BJ", "experiment": "Compound was tested for human telomerase reverse transcriptase-SEAP (hTERT-SEAP) activity in immortalized hTERT-BJI at 180.0 uM concentration", "format": "functional"}, "NCI-H1299 [31]": {"test_system": "NCI-H1299", "experiment": "hTERT-SEAP (Human telomerase reverse transcriptase-SEAP) activity in non-small cell lung cancer H1299 cell at 1.8 uM concentration and level of cell viability determined in MTT assay", "format": "functional"}, "BJ [32]": {"test_system": "BJ", "experiment": "Compound was tested for human telomerase reverse transcriptase-SEAP (hTERT-SEAP) activity in immortalized hTERT-BJI at 18 uM concentration", "format": "functional"}, "BJ [33]": {"test_system": "BJ", "experiment": "hTERT-SEAP (Human telomerase reverse transcriptase-SEAP) activity in immortalized hTERT-BJI at 180.0 uM concentration and level of cell viability determined in MTT assay", "format": "functional"}}, "data": [{"smiles": "COc1ccc(CSc2cccc3c2C(=O)c2cccc(SCc4ccc(OC)cc4)c2C3=O)cc1", "values": [{"measurement": "Relative viability", "setting": "NCI-H1299 [1]", "value": 42, "unit": "%"}, {"measurement": "Relative SEAP activity", "setting": "BJ [2]", "value": 102, "unit": "%"}, {"measurement": "Relative SEAP activity", "setting": "NCI-H1299 [3]", "value": 92, "unit": "%"}, {"measurement": "Relative SEAP activity", "setting": "BJ [4]", "value": 141, "unit": "%"}, {"measurement": "Relative viability", "setting": "BJ [5]", "value": 62, "unit": "%"}, {"measurement": "Relative SEAP activity", "setting": "BJ [6]", "value": 118, "unit": "%"}, {"measurement": "Relative viability", "setting": "BJ [7]", "value": 119, "unit": "%"}, {"measurement": "Relative SEAP activity", "setting": "BJ [8]", "value": 103, "unit": "%"}, {"measurement": "Relative SEAP activity", "setting": "BJ [9]", "value": 142, "unit": "%"}, {"measurement": "Relative SEAP activity", "setting": "BJ [10]", "value": 100, "unit": "%"}, {"measurement": "Relative SEAP activity", "setting": "NCI-H1299 [11]", "value": 88, "unit": "%"}, {"measurement": "Relative SEAP activity", "setting": "NCI-H1299 [12]", "value": 96, "unit": "%"}, {"measurement": "Relative viability", "setting": "BJ [13]", "value": 98, "unit": "%"}, {"measurement": "Relative viability", "setting": "BJ [14]", "value": 67, "unit": "%"}, {"measurement": "Relative viability", "setting": "BJ [15]", "value": 52, "unit": "%"}, {"measurement": "Relative viability", "setting": "NCI-H1299 [16]", "value": 89, "unit": "%"}, {"measurement": "Relative viability", "setting": "BJ [17]", "value": 116, "unit": "%"}]}, {"smiles": "O=C(Oc1cccc2c1C(=O)c1cccc(OC(=O)c3ccc(Cl)cc3Cl)c1C2=O)c1ccc(Cl)cc1Cl", "values": [{"measurement": "Relative SEAP activity", "setting": "NCI-H1299 [18]", "value": 96, "unit": "%"}, {"measurement": "Relative viability", "setting": "NCI-H1299 [19]", "value": 77, "unit": "%"}, {"measurement": "Relative viability", "setting": "BJ [20]", "value": 102, "unit": "%"}, {"measurement": "Relative viability", "setting": "NCI-H1299 [21]", "value": 103, "unit": "%"}, {"measurement": "Relative SEAP activity", "setting": "NCI-H1299 [22]", "value": 102, "unit": "%"}, {"measurement": "Relative viability", "setting": "BJ [23]", "value": 108, "unit": "%"}, {"measurement": "Relative SEAP activity", "setting": "BJ [24]", "value": 111, "unit": "%"}, {"measurement": "Relative SEAP activity", "setting": "BJ [25]", "value": 99, "unit": "%"}, {"measurement": "Relative SEAP activity", "setting": "NCI-H1299 [26]", "value": 100, "unit": "%"}, {"measurement": "Relative viability", "setting": "BJ [27]", "value": 105, "unit": "%"}, {"measurement": "Relative viability", "setting": "BJ [28]", "value": 105, "unit": "%"}, {"measurement": "Relative SEAP activity", "setting": "BJ [29]", "value": 121, "unit": "%"}, {"measurement": "Relative SEAP activity", "setting": "BJ [30]", "value": 160, "unit": "%"}, {"measurement": "Relative viability", "setting": "NCI-H1299 [31]", "value": 108, "unit": "%"}, {"measurement": "Relative SEAP activity", "setting": "BJ [32]", "value": 150, "unit": "%"}, {"measurement": "Relative viability", "setting": "BJ [33]", "value": 96, "unit": "%"}]}]}
